One data set has as its target hAM1 receptor (Homo sapiens, UniProt O60895+Q16602). In words: cAMP assay for in vitro receptor activation, hAM1-R. Type of data set: cell-based. The conditions noted are these: cAMP assay, hAM1 receptor; read-out: hAM1R EC50. The gist of the method: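 Read-out is intracellular cAMP as a measure of receptor activation. Cells stably overexpressing hAM1 were subcloned to a monoclonal line, then thawed and seeded at 8000 cells/well in DPBS with 0.05% casein and the phosphodiesterase inhibitor IBMX at 0.5 mM.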

The nature of data set [1]: Physical stability of peptide analogues (Thioflavin T fibrillation). Conditions: maximum ThT signal normalized between hAMY maximum and buffer background; 40° C., shaking, four days; pH 7 per table title. The data set is classed as physicochemical. An outline of the steps: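 ThT fluorescence (450 nm excitation, 480 nm emission; 4 μM dye) was read every 10 min over four days at 40° C under 700 rpm shaking stress, after 1 h in pH 4 acetate or pH 7 phosphate (50 mM). Peak smoothed signal expressed as percent, scaled between buffer background and hAMY maximum.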

Bridge positions count the residues as written; N and C are the ends. Square brackets hold non-standard residues; d marks the D form. Peptide text beside a SMILES is read from it. Hyp = O=C(O)[C@@H]1C[C@@H](O)CN1; Cit = NC(=O)NCCC[C@H](N)C(=O)O Bounds are passed on as bounds.

hAM1 receptor, sequence (Q16602 23-461): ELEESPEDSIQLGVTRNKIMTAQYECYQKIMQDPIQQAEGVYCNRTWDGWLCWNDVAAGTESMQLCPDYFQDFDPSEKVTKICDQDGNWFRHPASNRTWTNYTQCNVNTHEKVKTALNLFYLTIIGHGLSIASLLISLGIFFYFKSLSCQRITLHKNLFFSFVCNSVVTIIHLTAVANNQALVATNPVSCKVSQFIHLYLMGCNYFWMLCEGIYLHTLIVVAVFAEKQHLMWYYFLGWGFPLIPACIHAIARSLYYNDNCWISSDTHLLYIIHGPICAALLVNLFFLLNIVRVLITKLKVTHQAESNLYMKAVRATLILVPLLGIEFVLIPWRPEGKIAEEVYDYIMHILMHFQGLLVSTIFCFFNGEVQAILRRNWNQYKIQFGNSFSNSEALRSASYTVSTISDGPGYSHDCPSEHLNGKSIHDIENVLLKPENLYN
hAM1 receptor, sequence (O60895 43-175 partner): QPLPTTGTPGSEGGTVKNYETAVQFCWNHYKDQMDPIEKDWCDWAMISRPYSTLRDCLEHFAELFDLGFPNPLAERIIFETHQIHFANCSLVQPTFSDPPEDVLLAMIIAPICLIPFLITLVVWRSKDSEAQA

By EC50 is commonly meant the midpoint of the concentration-response curve. With `CC[C@H](C)[C@H](NC(=O)[C@H](CCCCN)NC(=O)[C@H](CO)NC(=O)[C@H](CCCNC(=N)N)NC(=O)[C@@H]1CCCN1C(=O)[C@H](C)NC(=O)[C@@H](NC(=O)[C@H](CC(N)=O)NC(=O)[C@H](CC(=O)O)NC(=O)[C@H](CCCCN)NC(=O)[C@H](CC(=O)O)NC(=O)[C@H](CCCCN)NC(=O)[C@H](CC(=O)O)NC(=O)[C@@H](NC(=O)[C@H](Cc1ccccc1)NC(=O)[C@H](CCC(N)=O)NC(=O)[C@H](Cc1ccc(O)cc1)NC(=O)[C@@H](NC(=O)[C@H](CCC(N)=O)NC(=O)[C@H](Cc1c[nH]cn1)NC(=O)[C@H](C)NC(=O)[C@H](CC(C)C)NC(=O)[C@H](CCCNC(N)=O)NC(=O)[C@H](CCC(N)=O)NC(=O)[C@@H](NC(=O)[C@@H](NC(=O)[C@@H]1CSSC[C@H](NC(=O)CN)C(=O)N[C@@H](CCCNC(=N)N)C(=O)N[C@@H]([C@@H](C)O)C(=O)NCC(=O)N[C@@H]([C@@H](C)O)C(=O)N1)[C@@H](C)O)C(C)C)[C@@H](C)CC)[C@@H](C)O)C(C)C)C(=O)NCC(=O)N1CCC[C@H]1C(=O)N[C@@H](CC(N)=O)C(=O)NCC(=O)N1C[C@H](O)C[C@H]1C(N)=O` [compound 299] (H-GCRTGTCTVQ[Cit]LAHQIYQFTDKDKDNVAPRSKIGPNG[Hyp]-NH2; disulfide 2-7; N-terminus assumed), on hAM1 receptor, the EC50 is above 5 µM. Further, the “Max ThT signal (%)” value in data set [1] turned out to be 26.550%.

`CC[C@H](C)[C@H](NC(=O)[C@H](CCC(N)=O)NC(=O)[C@H](Cc1c[nH]cn1)NC(=O)[C@H](C)NC(=O)[C@H](CC(C)C)NC(=O)[C@H](CCCNC(=N)N)NC(=O)[C@H](CCC(N)=O)NC(=O)[C@@H](NC(=O)[C@@H](NC(=O)[C@@H]1CSSC[C@H](NC(=O)CN)C(=O)N[C@@H](CCCNC(=N)N)C(=O)N[C@@H](CCSC)C(=O)NCC(=O)N[C@@H]([C@@H](C)O)C(=O)N1)[C@@H](C)O)C(C)C)C(=O)N[C@@H](Cc1ccc(O)cc1)C(=O)N[C@@H](CCC(N)=O)C(=O)N[C@@H](Cc1ccccc1)C(=O)N[C@H](C(=O)N[C@@H](CC(=O)O)C(=O)N[C@@H](CCCCN)C(=O)N[C@@H](Cc1ccccc1)C(=O)N[C@@H](CCCCN)C(=O)N[C@@H](CC(=O)O)C(=O)N[C@@H](CC(N)=O)C(=O)N[C@H](C(=O)N[C@@H](C)C(=O)N1CCC[C@H]1C(=O)N[C@@H](CCCNC(=N)N)C(=O)N[C@@H](CO)C(=O)N[C@@H](CCCCN)C(=O)N[C@H](C(=O)N[C@@H](CO)C(=O)N1CCC[C@H]1C(=O)N[C@@H](CCC(N)=O)C(=O)N[C@H](C(=O)N1C[C@H](O)C[C@H]1C(N)=O)[C@@H](C)O)[C@@H](C)CC)C(C)C)[C@@H](C)O` [compound 173] (H-GCRMGTCTVQRLAHQIYQFTDKFKDNVAPRSKISPQT[Hyp]-NH2; disulfide 2-7; N-terminus assumed): the EC50 at hAM1 receptor was above 5 µM. In data set [1], the “Max ThT signal (%)” value came out at 4.400%.

Take `CC[C@H](C)[C@H](NC(=O)[C@H](CCC(N)=O)NC(=O)[C@H](Cc1c[nH]cn1)NC(=O)[C@H](C)NC(=O)[C@H](CC(C)C)NC(=O)[C@H](CCCNC(=N)N)NC(=O)[C@H](CCC(N)=O)NC(=O)[C@@H](NC(=O)[C@@H](NC(=O)[C@@H]1CSSC[C@H](NC(=O)CN)C(=O)N[C@@H](CCCNC(=N)N)C(=O)N[C@@H]([C@@H](C)O)C(=O)NCC(=O)N[C@@H]([C@@H](C)O)C(=O)N1)[C@@H](C)O)C(C)C)C(=O)N[C@@H](Cc1ccc(O)cc1)C(=O)N[C@@H](CCC(N)=O)C(=O)N[C@@H](Cc1ccccc1)C(=O)N[C@H](C(=O)N[C@@H](CC(N)=O)C(=O)N[C@@H](CCCCN)C(=O)N[C@@H](CC(=O)O)C(=O)N[C@@H](CCCCN)C(=O)N[C@@H](CC(=O)O)C(=O)N[C@@H](CC(N)=O)C(=O)N[C@H](C(=O)N[C@@H](C)C(=O)N1CCC[C@H]1C(=O)N[C@@H](CCCNC(=N)N)C(=O)N[C@@H](CO)C(=O)N[C@@H](CCCCN)C(=O)N[C@H](C(=O)N[C@@H](CO)C(=O)N1CCC[C@H]1C(=O)N[C@@H](CCC(N)=O)C(=O)N[C@H](C(=O)N[C@@H](CCCNC(=N)N)C(N)=O)[C@@H](C)O)[C@@H](C)CC)C(C)C)[C@@H](C)O` [compound 242] (H-GCRTGTCTVQRLAHQIYQFTNKDKDNVAPRSKISPQTR-NH2; disulfide 2-7; N-terminus assumed): on hAM1 receptor, the 50% effective concentration (EC50) was above 5 µM. The “Max ThT signal (%)” value in data set [1] turned out to be 0.800%.

The values above are taken from US12139520B2 (priority 2020, dated 2024).
